{"source": "patent US8513187B2", "about": "“Soft protease inhibitors, and pro-soft forms thereof” (priority 2009, dated 2013)", "key": {"[1]": {"biological_target": "DPP IV (Homo sapiens, UniProt P27487)", "sequence (P27487 whole entry, species assumed)": "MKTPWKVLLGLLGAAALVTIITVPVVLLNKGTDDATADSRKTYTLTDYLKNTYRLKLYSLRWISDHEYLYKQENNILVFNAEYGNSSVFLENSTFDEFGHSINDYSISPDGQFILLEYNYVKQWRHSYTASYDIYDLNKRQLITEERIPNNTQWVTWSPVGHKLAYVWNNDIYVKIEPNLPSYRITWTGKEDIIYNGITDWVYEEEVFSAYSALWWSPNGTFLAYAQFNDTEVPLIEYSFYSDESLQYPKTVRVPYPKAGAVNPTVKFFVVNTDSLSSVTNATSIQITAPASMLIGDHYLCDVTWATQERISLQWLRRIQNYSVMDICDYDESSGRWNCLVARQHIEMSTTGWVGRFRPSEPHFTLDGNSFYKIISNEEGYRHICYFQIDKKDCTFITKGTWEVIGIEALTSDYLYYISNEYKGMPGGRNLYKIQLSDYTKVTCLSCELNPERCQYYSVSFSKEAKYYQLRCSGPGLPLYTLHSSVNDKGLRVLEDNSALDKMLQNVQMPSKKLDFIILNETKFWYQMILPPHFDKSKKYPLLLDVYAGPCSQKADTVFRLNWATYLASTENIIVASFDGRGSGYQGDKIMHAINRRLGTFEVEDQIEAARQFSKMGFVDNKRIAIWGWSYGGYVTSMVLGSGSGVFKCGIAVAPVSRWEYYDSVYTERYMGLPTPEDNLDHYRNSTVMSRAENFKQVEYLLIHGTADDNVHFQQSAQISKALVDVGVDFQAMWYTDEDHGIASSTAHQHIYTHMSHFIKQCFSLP", "assay": "In vitro DPP IV inhibition assay (IC50, GP-AMC substrate)", "format": "biochemical", "conditions": "potency ratio versus oxy-analog compound 11", "experimental": "(§1) FIG. 6 depicts a table outlining various in vitro and in vivo assay results for DPP inhibitors. CLogP values were calculated using ChemDraw Ultra version 11.0. […] All except PREP used the same substrate (GP-AMC), but different concentrations (10 μM for DPP IV, 25 μM for DPP8 and DPP9, and 50 μM for FAP).\n(§2) The methods of biological testing used are described in International Patent Application PCT/US06/047853, published as WO/2007/100374, which claims priority to U.S. Provisional Patent Application No. 60/752,017. These methods are herein incorporated in their entirety by reference.\n(§3) FIGS. 6-9 depict the results from various biological assays. The CLogP values in these figures were calculated using ChemDraw Ultra version 11.0."}, "[2]": {"biological_target": "DPP8 (Homo sapiens, UniProt Q6V1X1)", "sequence (Q6V1X1 whole entry, species assumed)": "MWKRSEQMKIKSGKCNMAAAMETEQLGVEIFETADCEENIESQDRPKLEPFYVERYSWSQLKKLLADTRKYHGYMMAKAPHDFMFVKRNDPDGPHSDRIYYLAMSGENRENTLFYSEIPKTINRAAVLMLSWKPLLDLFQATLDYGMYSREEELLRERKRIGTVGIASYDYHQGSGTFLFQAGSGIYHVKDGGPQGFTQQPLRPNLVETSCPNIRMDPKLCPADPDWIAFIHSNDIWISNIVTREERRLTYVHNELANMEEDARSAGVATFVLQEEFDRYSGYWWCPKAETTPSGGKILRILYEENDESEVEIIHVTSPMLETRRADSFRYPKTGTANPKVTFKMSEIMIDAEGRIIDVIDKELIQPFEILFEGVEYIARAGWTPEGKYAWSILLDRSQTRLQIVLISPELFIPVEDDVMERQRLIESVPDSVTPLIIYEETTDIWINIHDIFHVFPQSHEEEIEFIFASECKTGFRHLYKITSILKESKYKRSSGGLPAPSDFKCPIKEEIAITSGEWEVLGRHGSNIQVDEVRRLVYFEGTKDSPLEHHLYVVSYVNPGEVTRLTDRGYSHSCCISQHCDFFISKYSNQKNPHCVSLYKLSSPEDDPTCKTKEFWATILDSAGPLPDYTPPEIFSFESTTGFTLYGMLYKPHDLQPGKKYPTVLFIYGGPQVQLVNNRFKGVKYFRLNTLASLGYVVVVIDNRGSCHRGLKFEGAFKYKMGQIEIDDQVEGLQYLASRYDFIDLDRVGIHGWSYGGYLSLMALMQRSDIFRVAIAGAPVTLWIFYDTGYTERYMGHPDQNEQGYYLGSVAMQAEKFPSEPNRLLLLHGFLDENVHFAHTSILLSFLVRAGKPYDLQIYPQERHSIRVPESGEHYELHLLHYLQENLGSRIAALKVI", "assay": "In vitro DPP8 inhibition assay (IC50, GP-AMC substrate)", "format": "biochemical", "conditions": "DPP IV versus DPP8", "experimental": "as §1, §2, §3"}, "[3]": {"biological_target": "T1, DPP9 (Homo sapiens, UniProt Q86TI2)", "T1 sequence (Q86TI2 whole entry, species assumed)": "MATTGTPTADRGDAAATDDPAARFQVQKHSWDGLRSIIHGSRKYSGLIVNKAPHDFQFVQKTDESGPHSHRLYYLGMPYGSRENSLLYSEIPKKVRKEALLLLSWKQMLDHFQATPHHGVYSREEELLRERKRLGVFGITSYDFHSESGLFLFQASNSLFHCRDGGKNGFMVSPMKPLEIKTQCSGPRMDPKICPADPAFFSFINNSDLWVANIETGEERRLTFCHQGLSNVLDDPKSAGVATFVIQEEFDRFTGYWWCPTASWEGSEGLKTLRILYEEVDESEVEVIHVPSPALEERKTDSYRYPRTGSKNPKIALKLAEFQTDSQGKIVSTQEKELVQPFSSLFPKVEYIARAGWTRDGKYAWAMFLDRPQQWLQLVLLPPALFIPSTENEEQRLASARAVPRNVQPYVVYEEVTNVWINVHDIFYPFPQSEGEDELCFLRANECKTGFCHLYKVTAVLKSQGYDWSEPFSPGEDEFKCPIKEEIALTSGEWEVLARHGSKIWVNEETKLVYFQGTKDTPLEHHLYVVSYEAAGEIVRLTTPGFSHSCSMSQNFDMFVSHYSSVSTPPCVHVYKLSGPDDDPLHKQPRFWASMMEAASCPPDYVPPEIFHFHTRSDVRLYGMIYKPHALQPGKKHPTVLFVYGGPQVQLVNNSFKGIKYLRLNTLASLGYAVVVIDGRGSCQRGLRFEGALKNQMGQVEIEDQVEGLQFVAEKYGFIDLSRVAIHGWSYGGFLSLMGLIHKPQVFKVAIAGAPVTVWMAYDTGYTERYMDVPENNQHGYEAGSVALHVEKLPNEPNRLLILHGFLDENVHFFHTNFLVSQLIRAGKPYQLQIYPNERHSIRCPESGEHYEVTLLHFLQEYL", "assay": "In vitro DPP9 inhibition assay (IC50, GP-AMC substrate)", "format": "biochemical", "conditions": "DPP IV versus DPP9", "experimental": "as §1, §2, §3"}, "[4]": {"biological_target": "T2, FAP (Homo sapiens, UniProt Q12884)", "T2 sequence (Q12884 1-760)": "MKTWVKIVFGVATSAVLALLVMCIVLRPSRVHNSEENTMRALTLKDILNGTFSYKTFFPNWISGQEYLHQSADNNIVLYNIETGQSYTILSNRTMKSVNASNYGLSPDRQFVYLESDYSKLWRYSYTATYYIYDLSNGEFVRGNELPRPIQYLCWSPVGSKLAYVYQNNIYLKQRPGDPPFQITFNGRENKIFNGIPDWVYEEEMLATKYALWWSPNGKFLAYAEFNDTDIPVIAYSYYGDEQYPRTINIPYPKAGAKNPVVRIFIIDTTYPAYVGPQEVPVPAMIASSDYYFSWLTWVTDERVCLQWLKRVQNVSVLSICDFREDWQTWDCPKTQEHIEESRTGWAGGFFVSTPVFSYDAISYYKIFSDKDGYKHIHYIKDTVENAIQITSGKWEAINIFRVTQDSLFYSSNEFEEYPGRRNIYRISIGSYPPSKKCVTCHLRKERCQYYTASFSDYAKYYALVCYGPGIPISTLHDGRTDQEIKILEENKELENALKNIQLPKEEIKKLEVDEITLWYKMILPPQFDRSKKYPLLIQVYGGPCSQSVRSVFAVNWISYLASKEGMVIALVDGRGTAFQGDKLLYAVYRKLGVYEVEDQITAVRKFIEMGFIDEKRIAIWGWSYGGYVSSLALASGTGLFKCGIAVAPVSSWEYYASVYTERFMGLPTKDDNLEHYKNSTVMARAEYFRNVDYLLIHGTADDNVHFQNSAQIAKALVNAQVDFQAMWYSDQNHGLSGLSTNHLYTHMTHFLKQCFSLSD", "assay": "In vitro FAP inhibition assay (GP-AMC substrate)", "format": "biochemical", "experimental": "(§4) FIG. 6 depicts a table outlining various in vitro and in vivo assay results for DPP inhibitors. CLogP values were calculated using ChemDraw Ultra version 11.0. […] The methods of biological testing used are described in International Patent Application PCT/US06/047853, published as WO/2007/100374, which claims priority to U.S. […] These methods are herein incorporated in their entirety by reference. FIGS. 6-9 depict the results from various biological assays. The CLogP values in these figures were calculated using ChemDraw Ultra version 11.0."}, "[5]": {"biological_target": "T3, PREP (Homo sapiens, UniProt P48147)", "T3 sequence (P48147 1-710)": "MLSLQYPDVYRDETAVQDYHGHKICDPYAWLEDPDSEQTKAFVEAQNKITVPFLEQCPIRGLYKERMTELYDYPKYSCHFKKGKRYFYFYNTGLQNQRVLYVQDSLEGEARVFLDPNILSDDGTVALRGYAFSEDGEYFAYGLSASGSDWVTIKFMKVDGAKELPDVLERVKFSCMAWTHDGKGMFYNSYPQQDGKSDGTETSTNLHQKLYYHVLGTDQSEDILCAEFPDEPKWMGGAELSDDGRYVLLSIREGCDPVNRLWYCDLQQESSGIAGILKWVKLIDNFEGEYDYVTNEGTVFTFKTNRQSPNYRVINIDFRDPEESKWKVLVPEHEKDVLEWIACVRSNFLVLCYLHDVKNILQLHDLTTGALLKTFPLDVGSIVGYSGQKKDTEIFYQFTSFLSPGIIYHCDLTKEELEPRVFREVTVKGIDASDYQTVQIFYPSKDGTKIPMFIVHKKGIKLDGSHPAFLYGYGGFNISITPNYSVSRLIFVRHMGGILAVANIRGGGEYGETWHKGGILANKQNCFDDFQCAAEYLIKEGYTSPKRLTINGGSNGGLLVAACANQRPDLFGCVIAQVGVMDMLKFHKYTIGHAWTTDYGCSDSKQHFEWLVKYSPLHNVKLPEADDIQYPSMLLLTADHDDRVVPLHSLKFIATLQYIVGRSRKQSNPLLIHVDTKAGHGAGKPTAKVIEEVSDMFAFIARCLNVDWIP", "assay": "In vitro PREP inhibition assay", "format": "biochemical", "experimental": "as §4"}, "[6]": {"biological_target": "T1, DPP9", "assay": "Intracellular IC50 (IC-IC50), intracellular potency against DPP9", "format": "cell-based", "conditions": "compounds preincubated at pH 2.0 for 4 h", "text": "It is important to note that IC-IC50 is not a measure of cell permeability. Like IC50, it is a composite of factors, including cell permeability, potency against DPP9, rate and equilibrium of the intramolecular cyclization reaction, and inhibitor stability, both intrinsic and intracellular."}, "[7]": {"test_system": "Sprague-Dawley (SD) rats", "conditions": "rat, in vivo, 300 mg/kg", "quoted_text": "In an experiment, 13 male SD rats were given 300 mg/kg of compound 5."}}, "data": [{"smiles": "CN(CB(O)O)C(=S)[C@@H](N)CCC(=O)O.Cl", "note": "[Compound 5, Glu-boroSar[thioxo amide]hydrochloride]", "values": [{"measurement": "more potent inhibitor of DPP IV than compound 11", "setting": "[1]", "result": "about 66 fold"}, {"measurement": "more potent for DPP IV than for DPP8 (selectivity)", "setting": "[2]", "result": "13,000 ×"}, {"measurement": "more potent for DPP IV than for DPP9 (selectivity)", "setting": "[3]", "result": "6,000 ×"}, {"measurement": "selectivity against FAP in vitro", "setting": "[4]", "result": "good selectivity"}, {"measurement": "selectivity against PREP in vitro", "setting": "[5]", "result": "good selectivity"}, {"measurement": "IC50", "setting": "[6]", "result": 828, "unit": "µM"}, {"measurement": "signs of toxicity after 24 h", "setting": "[7]", "result": "no sign of toxicity"}]}]}
